{"source": "paper PMC11931445", "about": "“A Novel Compound QO‐83 Alleviates Acute and Chronic Epileptic Seizures in Rodents by Modulating KV7 Channel Activity” (CNS Neuroscience & Therapeutics, 2025)", "key": {"[1]": {"system": "PTZ kindling seizures", "experiment": "Chronic PTZ-induced epileptic kindling model", "format": "in vivo, Wistar Institute rats", "experimental": "In the preparation of the chronic PTZ‐induced epileptic kindling model, male Wistar Institute rats weighing between 180 and 250 g were utilized. […] During the modeling period, all groups received daily intraperitoneal injections of 0.2 mL/100 g between 9:00 and 15:00.\nSeizure severity was assessed using the Racine scale."}, "[2]": {"target": "T1, KV7.4 (Homo sapiens, UniProt P56696)", "T1 construct": "expressed in transfected cells", "experiment": "Manual patch clamp, KV7 currents", "format": "cell-based", "protocol": "(§1) Pipettes (1–6 MΩ) were filled with a solution of KCl (145 mM), MgCl2 (1 mM), HEPES (10 mM), and EDTA (5 mM). The pH was adjusted to 7.2 with NaOH. Electrophysiological measurements were obtained using an AXON Multiclamp 700 B patch‐clamp amplifier. The bath solution contained NaCl (144 mM), KCl (5 mM), MgCl2 (1 mM), CaCl2 (2 mM), and D‐glucose (10 mM), with the pH adjusted to 7.4 using NaOH. The protocol involved an increase in voltage from −120 mV to 40 mV in increments of 10 mV to evoke a series of KV7 currents (1000 ms per pulse) in the bath solution. For details on cell culture, please see Appendix S1 2.2.1.\n(§2) Statistical differences between multiple groups (mean ± SEM) were compared using one‐ or two‐way ANOVA. Electrophysiological data were analyzed using SPSS version 21 and OriginPro (version 9.1.0). P Peak inward currents obtained from activation protocols were calculated using the following equation: G = I/(Vm‐EK), where G is conductance, I is peak inward current, Vm is instantaneous membrane potential, and EK is equilibrium potential for the […] channel. Conductance data were normalized using maximum conductance and further fitted to the Boltzmann equation: G=Gmax+Gmin−Gmax/1+expVm−V1/2/k , where G is conductance, V1/2 is midpoint of activation, and k is slope factor. The “Spectrum” module of LabChart was used for data analysis of EEG signals, including the calculation of power density and averaging power spectral density (PSD).\n(§3) Stable Chinese Hamster Ovary (CHO) cell lines expressing specific Kv7 channel subtypes, including KV7.2 and KV7.2/7.3, were cultured in Minimum Essential Medium (MEM) supplemented with 10% fetal calf serum, 1× nonessential amino acids, […], and […] hygromycin B. Concurrently, KV7.4 and KV7.5 channels were stably expressed in Human Embryonic Kidney 293A (HEK293A) cell lines and nurtured in Dulbecco's Modified Eagle Medium (DMEM) high glucose medium supplemented with 10% fetal bovine serum (FBS), […], and […] hygromycin B."}, "[3]": {"target": "T2, KV7.2/7.3 (Homo sapiens, UniProt O43525+O43526)", "T2 construct": "expressed in transfected cells", "experiment": "Manual patch clamp, KV7 currents", "format": "cell-based", "protocol": "as §1, §2, §3"}, "[4]": {"experiment": "Colour stability of drug solutions", "format": "physicochemical", "settings": "10 μM in saline, 37°C, 30 days", "protocol": "Both drugs were dissolved in saline at a concentration of 10 μM and maintained at a constant temperature of 37°C for 30 days."}, "[5]": {"target": "T1, KV7.4", "experiment": "Rb+ efflux high-throughput screening (ICR 8000)", "format": "cell-based", "text": "(§4) The activation effect of QO-83 on the KV7 channel was preliminarily verified using high-throughput screening methodologies.\n(§5) [picture] Figure S3: The activation effect of QO-83 on the KV7 channels was preliminarily verified by high-throughput screening. (A)High-throughput screening for KV7.2/7.3 stable expressed in CHO cells (n = 6). (B)High-throughput screening for KV7.4 stable expressed in HEK293 cells (n = 6). (C) High-throughput screening for KCNQ1/E1 transient expression in HEK293 cells (n = 6).\n(§6) The high-throughput screening experiment utilizing the ICR 8000 rubidium ion elution method aimed to assess the sensitivity of QO-83 towards KV7.2/3 and KV7.1 channels. Cells in the logarithmic growth phase were seeded into 96-well plates at a density of 2×10^5 cells per well. Following overnight incubation, the medium was replaced with 200 μL of RBCL-loaded buffer and incubated under controlled conditions (5% CO2, 37°C) for 3 hours. The loading buffer composition consisted of 5.4 mM RbCl, 5 mM Glucose, 25 mM HEPES, 150 mM NaCl, 1 mM MgCl2, 0.8 mM NaH2PO4•2H2O, and 2 mM CaCl2.\n(§7) Subsequently, the solution was aspirated, and the cells were washed thrice with Washing Buffer (5.4 mM KCl, 25 mM HEPES, 150 mM NaCl, 1 mM MgCl2, 0.8 mM NaH2PO4•2H2O, 2 mM CaCl2). […] Each concentration was distributed across triplicate wells, with corresponding concentration solvent control wells included. […]"}, "[6]": {"target": "T2, KV7.2/7.3", "experiment": "Rb+ efflux high-throughput screening (ICR 8000)", "format": "cell-based", "text": "as §4, §5, §6, §7"}, "[7]": {"system": "electroshock seizures", "experiment": "Maximal electroshock seizure (MES) model", "format": "in vivo, Kunming mice", "settings": "15 mg/kg i.p."}}}
{"smiles": "CCOC(=O)Nc1ccc(NCc2ccc(F)cc2)cc1N", "note": "[RTG, retigabine]", "values": [{"measurement": "effect on latency period", "setting": "[1]; 10 mg/kg", "value": "significantly prolong the latency period"}, {"measurement": "seizure grade", "setting": "[1]; 10 mg/kg i.p. daily, 30th day, model 4.68 ± 0.62", "value": "1.75 ± 0.31"}, {"measurement": "activation curve V1/2", "setting": "[2]; 10.00 μM", "value": "-40.62 ± 2.00", "unit": "mV"}, {"measurement": "Activation τ (10 mV)", "setting": "[2]; 10 μM, Mean ± SE", "value": "242.74 ± 34.66", "unit": "ms"}, {"measurement": "Deactivation τ (-120 mV)", "setting": "[2]; 10 μM, Mean ± SE", "value": "99.62 ± 18.87", "unit": "ms"}, {"measurement": "activation curve V1/2", "setting": "[3]; 10.00 μM", "value": "-37.76 ± 2.34", "unit": "mV"}, {"measurement": "Activation τ (10 mV)", "setting": "[3]; 10 μM, Mean ± SE", "value": "205.66 ± 37.03", "unit": "ms"}, {"measurement": "Deactivation τ (-120 mV)", "setting": "[3]; 10 μM, Mean ± SE", "value": "154.46 ± 45.81", "unit": "ms"}, {"measurement": "color change of drug solution", "setting": "[4]", "value": "developed a distinct purple coloration"}, {"measurement": "EC50", "setting": "[5]", "value": "1380 ± 310", "unit": "nM"}, {"measurement": "EC50", "setting": "[6]", "value": "180 ± 70", "unit": "nM"}, {"measurement": "electroshock protection rate", "setting": "[7]", "value": 90, "unit": "%"}]}
